Test systems include HOP-62; HOP-92; HL-60; LOX IMVI; 786-0; NCI/ADR-RES; UACC-257; HCT-15; Malme-3M; MDA-N; T47D; K562; CAKI-1; SK-MEL-5; RXF 393; KM12; OVCAR-4; SW-620; Hs-578T; DMS-114.
Test in all cases: growth of human tumour cells (NCI), 48 h

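Following 48 hours of exposure in 96-well plates, responses at five concentrations were used to interpolate endpoints linearly. GI50 = concentration required for 50% inhibition of growth.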 Activity calls are given as the source filed them. No stated cut-off is given here; in the data, active = GI50 up to about 1.1 µM and inactive = higher.

Take `OC1CCCCCCCCCCC1SCCCCl` (centres undefined): the GI50 in the test on HOP-62, in the test with HOP-92, in the test on HL-60, with LOX IMVI, in the test on 786-0 and in the test on NCI/ADR-RES was > 100 µM (inactive) each time. In addition, the GI50 in the test on UACC-257 was > 100 µM (inactive); in the test on HCT-15 it was over 100 µM; in the test with Malme-3M, 81.8 µM (inactive); in the test on MDA-N, > 100 µM (inactive); in the test on T47D it was > 100 µM (inactive); in the test with K562, > 100 µM (inactive). In addition, the GI50 in the test with CAKI-1, with SK-MEL-5, in the test with RXF 393, with KM12, with OVCAR-4 and in the test with SW-620 was > 100 µM (inactive) throughout. The GI50 with Hs-578T is > 100 µM (inactive).

As to `CN(C)C(C1=C(O)C(c2ccccc2)N(c2ccccc2)C1=O)N1CCOCC1` (centres undefined), the GI50 in the test with HOP-62, in the test with HOP-92, in the test with HL-60, in the test on LOX IMVI, in the test with 786-0 and in the test on NCI/ADR-RES was > 10 µM (inactive) throughout. Further, the GI50 in the test on UACC-257 is > 10 µM (inactive); in the test on HCT-15, over 10 µM; with Malme-3M, > 10 µM (inactive); in the test with MDA-N, > 10 µM (inactive); in the test with T47D it was > 10 µM (inactive); with K562, > 10 µM (inactive). For the same compound, the GI50 with CAKI-1, in the test on SK-MEL-5, in the test on RXF 393, with KM12, in the test on OVCAR-4 and in the test on SW-620 was > 10 µM (inactive) each time. The GI50 in the test with Hs-578T is > 10 µM (inactive).

With `COc1cc(C(C)O)c[n+](CCc2c[nH]c3ccccc23)c1` (centres undefined), the GI50 in the test with HOP-62, in the test with HL-60, in the test with LOX IMVI, in the test on 786-0, in the test with UACC-257 and in the test on DMS-114 was > 100 µM (inactive) throughout. Besides, the GI50 is over 100 µM in the test on HCT-15; > 100 µM (inactive) in the test with Malme-3M; > 100 µM (inactive) in the test on K562; > 100 µM (inactive) with CAKI-1; > 100 µM (inactive) in the test with SK-MEL-5; > 100 µM (inactive) in the test on RXF 393. In addition, the GI50 in the test on KM12, in the test on OVCAR-4 and in the test with SW-620 was > 100 µM (inactive) each time.

With `CCOC(=O)CCC(NC(=O)c1ccc(Nc2nc3ccccc3nc2-c2cccs2)cc1)C(=O)OCC` (centres undefined), the GI50 with HOP-62 was > 100 µM (inactive); in the test with HOP-92, 29.8 µM (inactive); in the test with HL-60 it was 5.21 µM (inactive); with LOX IMVI, 23.1 µM (inactive); in the test on 786-0, 32.4 µM (inactive); in the test with NCI/ADR-RES it was 21.3 µM (inactive). The GI50 was 29.2 µM (inactive) in the test on UACC-257; 21.9 µM in the test on HCT-15; 24.1 µM (inactive) in the test on Malme-3M; 20.6 µM (inactive) with MDA-N; 12 µM (inactive) with T47D; 12.1 µM (inactive) with K562. The GI50 in the test on CAKI-1 was 29.8 µM (inactive); in the test with SK-MEL-5, 15.2 µM (inactive); in the test on RXF 393 it was 87.3 µM (inactive); in the test with KM12, 24.6 µM (inactive); in the test with OVCAR-4, 23.9 µM (inactive); in the test on SW-620, 33.8 µM (inactive). Further, in the test on Hs-578T, the GI50 was 23 µM (inactive).

`Cc1cc2oc(C)c(S(=O)(=O)NC(=O)Nc3ccc(Cl)cc3)c(=O)c2c(=O)o1`: the GI50 in the test with HOP-62, with HOP-92, in the test with HL-60, with LOX IMVI, in the test with 786-0 and with NCI/ADR-RES was > 100 µM (inactive) throughout. In addition, the GI50 was > 100 µM (inactive) with UACC-257; 23 µM with HCT-15; > 100 µM (inactive) in the test with Malme-3M; > 100 µM (inactive) in the test on MDA-N; > 100 µM (inactive) in the test on T47D; > 100 µM (inactive) in the test with K562. The GI50 in the test on CAKI-1, with SK-MEL-5, in the test with RXF 393, with KM12, with OVCAR-4 and with SW-620 was > 100 µM (inactive) in each case. In addition, in the test with Hs-578T, the GI50 was > 100 µM (inactive).

Regarding `Cc1cnccc1/N=N/c1ccc(N(C)C)cc1`, the GI50 is 56.5 µM (inactive) in the test on HOP-62; 9.38 µM (inactive) in the test with HOP-92; 47.5 µM (inactive) with HL-60; 17.4 µM (inactive) in the test on LOX IMVI; 42.2 µM (inactive) with 786-0; 13 µM (inactive) with NCI/ADR-RES. In addition, the GI50 in the test with UACC-257 was 22.3 µM (inactive); with HCT-15, 15.1 µM; in the test with Malme-3M it was 35.7 µM (inactive); in the test on MDA-N it was 8.32 µM (inactive); in the test with T47D it was 48.6 µM (inactive); in the test on K562, 18.6 µM (inactive). Moreover, the GI50 in the test on CAKI-1 is 25.9 µM (inactive); with SK-MEL-5, 15 µM (inactive); in the test on RXF 393 it was 14.9 µM (inactive); with KM12, 20.3 µM (inactive); with OVCAR-4, 16.9 µM (inactive); with SW-620 it was 22.4 µM (inactive). Also, the GI50 with Hs-578T was 29.9 µM (inactive).

As for `O=C(Nc1ccccc1)OCCN=C1c2ccccc2C(Br)C(Br)c2ccccc21` (centres undefined), the GI50 in the test with HOP-62 is 15.1 µM (inactive); in the test with HOP-92, 8.81 µM (inactive); in the test with HL-60, 1.92 µM (inactive); in the test on LOX IMVI, 5.08 µM (inactive); with 786-0, 2.82 µM (inactive); in the test on NCI/ADR-RES, 11.7 µM (inactive). The GI50 in the test with UACC-257 was 6.59 µM (inactive); in the test on HCT-15 it was 3.85 µM; in the test on Malme-3M, 6.15 µM (inactive); in the test with MDA-N it was 3.82 µM (inactive); in the test with T47D, 8.69 µM (inactive); with K562, 2.8 µM (inactive). Besides, the GI50 in the test with CAKI-1 is 6.49 µM (inactive); with SK-MEL-5, 12.3 µM (inactive); in the test on RXF 393, 3.93 µM (inactive); in the test on KM12, 13.2 µM (inactive); with OVCAR-4, 5.38 µM (inactive); in the test on SW-620, 4.43 µM (inactive). In the test on Hs-578T, the GI50 was 12.4 µM (inactive).

Take `CC1=NN(C(=O)Cc2ccccc2)C(=O)/C1=C\c1cccc(O)c1`: the GI50 in the test on HOP-62, with HL-60, in the test on LOX IMVI, in the test with 786-0, in the test with UACC-257 and in the test with DMS-114 was > 100 µM (inactive) throughout. Besides, the GI50 in the test with HCT-15 is over 100 µM; in the test on Malme-3M it was > 100 µM (inactive); in the test with K562, > 100 µM (inactive); in the test with CAKI-1 it was > 100 µM (inactive); with SK-MEL-5, > 100 µM (inactive); in the test on KM12, > 100 µM (inactive). In addition, the GI50 in the test on OVCAR-4 and in the test on SW-620 was > 100 µM (inactive) throughout.

Turning to `COc1ccc(/C=C2\C(=O)N(C(=O)c3ccc(NC(C)=O)cc3)N=C2C)cc1`, the GI50 with HOP-62, in the test with HL-60, in the test on LOX IMVI, with 786-0, with UACC-257 and in the test with DMS-114 was > 100 µM (inactive) in each case. Further, the GI50 in the test with HCT-15 was over 100 µM; in the test with Malme-3M it was > 100 µM (inactive); with K562 it was > 100 µM (inactive); with CAKI-1, > 100 µM (inactive); in the test on SK-MEL-5, > 100 µM (inactive); with KM12, > 100 µM (inactive). In addition, the GI50 in the test on OVCAR-4 and in the test on SW-620 was > 100 µM (inactive) each time.

On to `C/C(=N\NC(=O)CC(=O)N(C(=O)c1ccc(Cl)cc1)c1ccc(C)cc1)c1ccccc1O`, for which the GI50 is 37 µM (inactive) in the test on HOP-62; 13.4 µM (inactive) with 786-0; > 100 µM (inactive) in the test with UACC-257; 97.1 µM (inactive) in the test with DMS-114; 4.88 µM in the test on HCT-15; > 100 µM (inactive) in the test with Malme-3M. Besides, the GI50 in the test with K562 is > 100 µM (inactive); in the test on CAKI-1 it was 64 µM (inactive); in the test with SK-MEL-5, > 100 µM (inactive); in the test on RXF 393, 18.3 µM (inactive); with KM12, 9.68 µM (inactive); in the test with OVCAR-4, 1.67 µM (inactive). Further, the GI50 in the test with SW-620 was > 100 µM (inactive).

With `Cc1ccc(N2C(=O)C(Cl)=C(Cl)C2=O)cc1`, the GI50 in the test with HOP-62 was 30.1 µM (inactive); with HOP-92, 18.2 µM (inactive); with LOX IMVI, 23.6 µM (inactive); in the test on 786-0, 17.3 µM (inactive); in the test with UACC-257, 19.1 µM (inactive); in the test on DMS-114, 19 µM (inactive). The GI50 in the test with HCT-15 was 19.2 µM; in the test on Malme-3M it was 18.7 µM (inactive); with K562 it was 18.7 µM (inactive); in the test with CAKI-1 it was 17.1 µM (inactive); in the test with SK-MEL-5, 40.9 µM (inactive); with RXF 393, 12.5 µM (inactive). In addition, the GI50 is 20.5 µM (inactive) in the test on KM12, 19.2 µM (inactive) with OVCAR-4 and 19.7 µM (inactive) with SW-620.

For `COc1c(-c2ccc3c(c2)OCO3)oc2cc3c(c(OC)c2c1=O)OCO3` [MELITERNATIN], the GI50 in the test on HOP-62 was 15.4 µM (inactive); with HOP-92, 15.3 µM (inactive); in the test on HL-60, 1.09 µM (active); in the test with LOX IMVI, 11.6 µM (inactive); with 786-0, 48.2 µM (inactive); with NCI/ADR-RES, 27.6 µM (inactive). For the same compound, the GI50 is 38.5 µM (inactive) in the test with UACC-257; 30.8 µM with HCT-15; 24.8 µM (inactive) in the test with Malme-3M; 18.5 µM (inactive) in the test with MDA-N; 16.2 µM (inactive) with T47D; 23.8 µM (inactive) with K562. Also, the GI50 is 23.8 µM (inactive) in the test on CAKI-1; 18.4 µM (inactive) in the test with SK-MEL-5; 28.5 µM (inactive) with RXF 393; 25.5 µM (inactive) in the test with KM12; 24.2 µM (inactive) in the test with OVCAR-4; 25.1 µM (inactive) in the test with SW-620. For the same compound, the GI50 in the test on Hs-578T is 31.1 µM (inactive).

The values above are taken from ChEMBL document CHEMBL1201862, “PubChem BioAssay data set” (2004).
